Measured values from ChEMBL document CHEMBL3044631, “Synthesis of 2-[4,5-dimethyl-1-(phenylamino)-1H-imidazol-2-ylthio]-N-(thiazole-2-yl)acetamide derivatives and their anticancer activities” (2013).

Assays:
Type in all cases: functional
[1] = test system: HCT-116; assay: Anticancer activity against Homo sapiens (human) HCT116 cells after 48 hr by SRB assay; settings: HCT-116, 48 h
[2] = test system: NCI-H322M; assay: Anticancer activity against Homo sapiens (human) NCI-H322M cells after 48 hr by SRB assay; settings: for CC50: read-out: LC50 (the source's name)
[3] = test system: OVCAR-3; assay: Anticancer activity against Homo sapiens (human) OVCAR3 cells assessed as cell growth promotion at 10 uM after 48 hr by SRB assay
[4] = test system: MDA-MB-468; assay: Anticancer activity against Homo sapiens (human) MDA-MB-468 cells after 48 hr by SRB assay; settings: MDA-MB-468, 48 h
[5] = test system: SK-OV-3; assay: Anticancer activity against Homo sapiens (human) SKOV3 cells after 48 hr by SRB assay; settings: SK-OV-3, 48 h
[6] = test system: SK-OV-3; assay: Anticancer activity against Homo sapiens (human) SKOV3 cells assessed as cell growth promotion at 10 uM after 48 hr by SRB assay
[7] = test system: MCF7; assay: Anticancer activity against Homo sapiens (human) MCF7 cells assessed as cell growth promotion at 10 uM after 48 hr by SRB assay
[8] = test system: NCI/ADR-RES; assay: Anticancer activity against Homo sapiens (human) NCI/ADR-RES cells assessed as cell growth promotion at 10 uM after 48 hr by SRB assay
[9] = test system: SF-539; assay: Anticancer activity against Homo sapiens (human) SF539 cells assessed as cell growth promotion at 10 uM after 48 hr by SRB assay
[10] = test system: K562; assay: Anticancer activity against Homo sapiens (human) K562 cells assessed as cell growth promotion at 10 uM after 48 hr by SRB assay
[11] = test system: SF-268; assay: Anticancer activity against Homo sapiens (human) SF268 cells assessed as cell growth promotion at 10 uM after 48 hr by SRB assay
[12] = test system: SNB-19; assay: Anticancer activity against Homo sapiens (human) SNB19 cells assessed as cell growth promotion at 10 uM after 48 hr by SRB assay
[13] = test system: U-251; assay: Anticancer activity against Homo sapiens (human) U251 cells assessed as cell growth promotion at 10 uM after 48 hr by SRB assay
[14] = test system: CAKI-1; assay: Anticancer activity against Homo sapiens (human) CAKI-1 cells after 48 hr by SRB assay; settings: CAKI-1, 48 h
[15] = test system: TK-10; assay: Anticancer activity against Homo sapiens (human) TK10 cells after 48 hr by SRB assay; settings: TK-10, 48 h
[16] = test system: KM12; assay: Anticancer activity against Homo sapiens (human) KM12 cells after 48 hr by SRB assay; settings: KM12, 48 h
[17] = test system: BT-549; assay: Anticancer activity against Homo sapiens (human) BT549 cells assessed as cell growth promotion at 10 uM after 48 hr by SRB assay
[18] = test system: UACC-257; assay: Anticancer activity against Homo sapiens (human) UACC257 cells after 48 hr by SRB assay; settings: UACC-257, 48 h
[19] = test system: SK-MEL-5; assay: Anticancer activity against Homo sapiens (human) SK-MEL-5 cells assessed as cell growth promotion at 10 uM after 48 hr by SRB assay
[20] = test system: OVCAR-4; assay: Anticancer activity against Homo sapiens (human) OVCAR4 cells after 48 hr by SRB assay; settings: OVCAR-4, 48 h
[21] = test system: HT-29; assay: Anticancer activity against Homo sapiens (human) HT-29 cells assessed as cell growth promotion at 10 uM after 48 hr by SRB assay
[22] = test system: M14; assay: Anticancer activity against Homo sapiens (human) M14 cells after 48 hr by SRB assay; settings: M14, 48 h
[23] = test system: PC-3; assay: Anticancer activity against Homo sapiens (human) PC3 cells assessed as cell growth promotion at 10 uM after 48 hr by SRB assay
[24] = test system: ACHN; assay: Anticancer activity against Homo sapiens (human) ACHN cells assessed as cell growth promotion at 10 uM after 48 hr by SRB assay
[25] = test system: Hs-578T; assay: Anticancer activity against Homo sapiens (human) Hs 578T cells after 48 hr by SRB assay; settings: for CC50: read-out: LC50 (the source's name)
[26] = test system: CAKI-1; assay: Anticancer activity against Homo sapiens (human) CAKI-1 cells assessed as cell growth promotion at 10 uM after 48 hr by SRB assay
[27] = test system: MDA-MB-231; assay: Anticancer activity against Homo sapiens (human) MDA-MB-231/ATCC cells after 48 hr by SRB assay; settings: MDA-MB-231, 48 h; for CC50: read-out: LC50 (the source's name)
[28] = test system: SF-539; assay: Anticancer activity against Homo sapiens (human) SF539 cells after 48 hr by SRB assay; settings: SF-539, 48 h
[29] = test system: SK-MEL-2; assay: Anticancer activity against Homo sapiens (human) SK-MEL-2 cells after 48 hr by SRB assay; settings: SK-MEL-2, 48 h
[30] = test system: MDA-MB-231; assay: Anticancer activity against Homo sapiens (human) MDA-MB-231/ATCC cells assessed as cell growth promotion at 10 uM after 48 hr by SRB assay
[31] = test system: SN12C; assay: Anticancer activity against Homo sapiens (human) SN12C cells after 48 hr by SRB assay
[32] = test system: OVCAR-5; assay: Anticancer activity against Homo sapiens (human) OVCAR5 cells assessed as cell growth promotion at 10 uM after 48 hr by SRB assay
[33] = test system: U-251; assay: Anticancer activity against Homo sapiens (human) U251 cells after 48 hr by SRB assay; settings: U-251, 48 h
[34] = test system: HCC 2998; assay: Anticancer activity against Homo sapiens (human) HCC2998 cells assessed as cell growth promotion at 10 uM after 48 hr by SRB assay
[35] = test system: HOP-92; assay: Anticancer activity against Homo sapiens (human) HOP92 cells assessed as cell growth promotion at 10 uM after 48 hr by SRB assay

SMILES: Cc1nc(SCC(=O)Nc2nc(-c3ccc(Cl)cc3)cs2)n(Nc2ccccc2)c1C
- GI50 [1]: 1.84 µM
- LC50 [1]: 15.5 µM
- TGI [1]: 4.62 µM
- GI50 [2]: 4.17 µM
- TGI [2]: 22.9 µM
- CC50 [2]: > 100 µM
- Activity [3]: 61.29%
- GI50 [4]: 1.45 µM
- LC50 [4]: 40.4 µM
- TGI [4]: 6.27 µM
- GI50 [5]: 5.91 µM
- LC50 (50% lethal concentration) [5]: 47.4 µM
- TGI [5]: 19.8 µM
- Activity [6]: 68.56%
- Activity [7]: 27.14%
- Activity [8]: 20.41%
- Activity [9]: 35.42%
- Activity [10]: 27.56%
- Activity [11]: 56.4%
- Activity [12]: 59.64%
- Activity [13]: 36.61%
- GI50 [14]: 3.93 µM
- LC50 (concentration killing 50% of cells) [14]: > 100 µM
- TGI [14]: 22.6 µM
- GI50 [15]: 3.65 µM
- LC50 (50% lethal concentration) [15]: 40.7 µM
- TGI [15]: 13.8 µM
- GI50 [16]: 2.95 µM
- LC50 (concentration killing 50% of cells) [16]: 41.4 µM
- TGI [16]: 14 µM
- Activity [17]: 54%
- GI50 [18]: 3.07 µM
- LC50 [18]: > 100 µM
- TGI [18]: 17 µM
- Activity [19]: 10.19%
- GI50 [20]: 4.6 µM
- LC50 (concentration killing 50% of starting cells) [20]: > 100 µM
- TGI [20]: 22.1 µM
- Activity [21]: 25.29%
- GI50 [22]: 3.69 µM
- LC50 [22]: 51.2 µM
- TGI [22]: 16 µM
- Activity [23]: 59.13%
- Activity [24]: 49.37%
- GI50 [25]: 3.42 µM
- TGI [25]: 21.6 µM
- CC50 [25]: > 100 µM
- Activity [26]: 36.74%
- GI50 [27]: 3.01 µM
- TGI [27]: 15.2 µM
- CC50 [27]: 57.8 µM
- GI50 [28]: 1.9 µM
- LC50 (concentration killing 50% of cells) [28]: 9.64 µM
- TGI [28]: 4.27 µM
- GI50 [29]: 10.1 µM
- LC50 (concentration killing 50% of cells) [29]: 75.5 µM
- TGI [29]: 27.6 µM
- Activity [30]: 48.83%
- GI50 [31]: 2.38 µM
- LC50 (concentration killing 50% of cells) [31]: 35.8 µM
- TGI [31]: 10.1 µM
- Activity [32]: 65.75%
- GI50 [33]: 3.13 µM
- LC50 (lethal concentration, 50% net cell kill) [33]: 41.4 µM
- TGI [33]: 13 µM
- Activity [34]: 69.51%

SMILES: Cc1ccc(Nn2c(SCC(=O)Nc3nc(-c4ccccc4)cs3)nc(C)c2C)cc1
- GI50 [1]: 2.82 µM
- LC50 [1]: > 100 µM
- TGI [1]: 26.5 µM
- GI50 [2]: 10.2 µM
- TGI [2]: > 100 µM
- CC50 [2]: > 100 µM
- Activity [3]: 78.47%
- GI50 [4]: 1.7 µM
- LC50 [4]: > 100 µM
- TGI [4]: 6.67 µM
- GI50 [5]: 10.6 µM
- LC50 (50% lethal concentration) [5]: > 100 µM
- TGI [5]: > 100 µM
- Activity [6]: 69.62%
- Activity [7]: 24.07%
- Activity [8]: 34.4%
- Activity [9]: 73.68%
- Activity [10]: 37.67%
- Activity [11]: 81.68%
- Activity [12]: 74.35%
- Activity [13]: 49.3%
- GI50 [14]: 1.86 µM
- LC50 (concentration killing 50% of cells) [14]: 99.3 µM
- TGI [14]: 6.1 µM
- GI50 [15]: 18.9 µM
- LC50 (50% lethal concentration) [15]: > 100 µM
- TGI [15]: > 100 µM
- GI50 [16]: 4.13 µM
- LC50 (concentration killing 50% of cells) [16]: > 100 µM
- TGI [16]: 19.1 µM
- Activity [17]: 63.51%
- GI50 [18]: 2.12 µM
- LC50 [18]: > 100 µM
- TGI [18]: 9.29 µM
- Activity [19]: 66.75%
- GI50 [20]: 2.13 µM
- LC50 (concentration killing 50% of starting cells) [20]: > 100 µM
- TGI [20]: > 100 µM
- Activity [21]: 56.13%
- GI50 [22]: 3.7 µM
- LC50 [22]: > 100 µM
- TGI [22]: 48.6 µM
- Activity [23]: 71.8%
- Activity [24]: 60.88%
- GI50 [25]: 3.41 µM
- TGI [25]: > 100 µM
- CC50 [25]: > 100 µM
- Activity [35]: 59.94%
- Activity [26]: 53.6%
- GI50 [27]: 3.34 µM
- TGI [27]: > 100 µM
- CC50 [27]: > 100 µM
- GI50 [28]: 4.68 µM
- LC50 (concentration killing 50% of cells) [28]: > 100 µM
- TGI [28]: 35.2 µM
- GI50 [29]: 7.58 µM
- LC50 (concentration killing 50% of cells) [29]: > 100 µM
- TGI [29]: 35.3 µM
- Activity [30]: 46%
- GI50 [31]: 3.2 µM
- LC50 (concentration killing 50% of cells) [31]: 63 µM
- TGI [31]: 14.2 µM
- Activity [32]: 81.8%
- GI50 [33]: 4.5 µM
- LC50 (lethal concentration, 50% net cell kill) [33]: > 100 µM
- TGI [33]: > 100 µM
- Activity [34]: 91.96%

SMILES: Cc1nc(SCC(=O)Nc2nccs2)n(Nc2ccccc2)c1C
- Activity [3]: 116.22%
- Activity [6]: 102.5%
- Activity [7]: 98.76%
- Activity [8]: 96.1%
- Activity [9]: 86.84%
- Activity [10]: 101.35%
- Activity [11]: 106.58%
- Activity [12]: 108.55%
- Activity [13]: 102.44%
- Activity [17]: 96.32%
- Activity [19]: 94.75%
- Activity [21]: 99.8%
- Activity [23]: 93.56%
- Activity [24]: 95.27%
- Activity [35]: 76.48%
- Activity [26]: 102.08%
- Activity [30]: 95.5%
- Activity [32]: 80.93%
- Activity [34]: 101.96%
